Values of other authors in patent US20220395496A1 (Hoffmann-La Roche Inc., priority 2019, published 2022).

Experiments:
HEK/hTLR7 = molecular target: T1, HEK/hTLR7 (Homo sapiens, UniProt Q9NYK1); conditions: data disclosed in WO2015057655; cited from earlier work
T1 construct: host or cells: HEK cells
T1 sequence (Q9NYK1 27-1049): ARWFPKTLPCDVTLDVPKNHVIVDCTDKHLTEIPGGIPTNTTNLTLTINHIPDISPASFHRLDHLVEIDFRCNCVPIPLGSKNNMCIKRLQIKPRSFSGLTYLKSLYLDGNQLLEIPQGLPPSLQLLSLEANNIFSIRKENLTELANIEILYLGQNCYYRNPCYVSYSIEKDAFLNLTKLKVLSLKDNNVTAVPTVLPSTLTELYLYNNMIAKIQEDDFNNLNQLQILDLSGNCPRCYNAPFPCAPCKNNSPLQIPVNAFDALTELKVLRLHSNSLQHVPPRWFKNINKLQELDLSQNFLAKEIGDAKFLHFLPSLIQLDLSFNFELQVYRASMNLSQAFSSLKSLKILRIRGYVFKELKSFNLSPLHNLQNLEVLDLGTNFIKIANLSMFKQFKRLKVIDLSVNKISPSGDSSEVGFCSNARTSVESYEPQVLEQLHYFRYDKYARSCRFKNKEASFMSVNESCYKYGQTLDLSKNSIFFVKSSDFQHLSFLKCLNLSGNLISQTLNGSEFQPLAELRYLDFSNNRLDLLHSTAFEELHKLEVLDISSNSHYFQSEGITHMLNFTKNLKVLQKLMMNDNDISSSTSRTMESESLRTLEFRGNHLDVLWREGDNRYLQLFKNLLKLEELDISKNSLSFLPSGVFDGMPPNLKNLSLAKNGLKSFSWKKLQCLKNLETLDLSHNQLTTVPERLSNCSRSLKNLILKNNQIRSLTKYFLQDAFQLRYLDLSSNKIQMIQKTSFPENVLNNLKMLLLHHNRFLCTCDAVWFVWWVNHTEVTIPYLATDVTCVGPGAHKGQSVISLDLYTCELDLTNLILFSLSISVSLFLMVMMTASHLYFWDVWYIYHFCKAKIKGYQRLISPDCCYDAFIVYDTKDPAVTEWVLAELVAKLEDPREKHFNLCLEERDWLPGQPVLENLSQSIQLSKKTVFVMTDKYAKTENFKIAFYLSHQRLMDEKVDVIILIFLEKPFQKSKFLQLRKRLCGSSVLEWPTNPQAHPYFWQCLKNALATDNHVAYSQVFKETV

HEK/hTLR9 = molecular target: T2, HEK/hTLR9 (Homo sapiens, UniProt Q9NR96); conditions: data disclosed in WO2015057655; cited from earlier work
T2 construct: host or cells: HEK cells
T2 sequence (Q9NR96 26-1032): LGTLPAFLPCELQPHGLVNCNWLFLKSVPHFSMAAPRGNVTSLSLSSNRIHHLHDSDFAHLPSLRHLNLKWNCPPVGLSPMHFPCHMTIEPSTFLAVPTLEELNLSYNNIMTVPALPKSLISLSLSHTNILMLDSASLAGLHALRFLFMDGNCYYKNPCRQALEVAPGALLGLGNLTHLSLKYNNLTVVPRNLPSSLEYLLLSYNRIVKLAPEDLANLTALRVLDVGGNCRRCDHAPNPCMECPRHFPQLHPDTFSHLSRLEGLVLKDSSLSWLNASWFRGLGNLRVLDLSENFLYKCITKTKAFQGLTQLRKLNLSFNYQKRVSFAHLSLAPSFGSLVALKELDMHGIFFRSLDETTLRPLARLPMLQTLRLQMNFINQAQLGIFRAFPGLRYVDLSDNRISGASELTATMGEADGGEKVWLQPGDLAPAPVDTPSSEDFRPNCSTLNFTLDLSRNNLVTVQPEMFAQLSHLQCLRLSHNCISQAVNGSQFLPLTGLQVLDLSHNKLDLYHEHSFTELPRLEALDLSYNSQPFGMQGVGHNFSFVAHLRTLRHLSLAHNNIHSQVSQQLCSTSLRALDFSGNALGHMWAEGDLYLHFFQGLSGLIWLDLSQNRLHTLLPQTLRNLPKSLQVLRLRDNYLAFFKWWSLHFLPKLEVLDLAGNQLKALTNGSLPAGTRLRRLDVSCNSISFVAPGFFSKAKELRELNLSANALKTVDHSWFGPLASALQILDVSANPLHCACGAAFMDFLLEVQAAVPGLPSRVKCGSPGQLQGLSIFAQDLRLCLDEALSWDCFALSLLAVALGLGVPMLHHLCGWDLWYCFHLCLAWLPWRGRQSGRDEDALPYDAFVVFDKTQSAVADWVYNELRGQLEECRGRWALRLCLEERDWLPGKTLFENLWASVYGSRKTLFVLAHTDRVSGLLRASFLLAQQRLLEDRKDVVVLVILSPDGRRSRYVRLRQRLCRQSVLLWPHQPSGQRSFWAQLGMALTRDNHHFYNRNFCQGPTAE

Row | Compound | IC50 (HEK/hTLR7) | IC50 (HEK/hTLR9)
1 | C[C@H]1C[C@@H](NCc2ccc(C(F)(F)F)cn2)CN(c2ccc(C#N)c3ncccc23)C1 [ER-899543] | 48 nM | > 10000 nM
2 | C[C@H]1C[C@@H](NCc2ncco2)CN(c2ccc(C#N)c3ncccc23)C1 [ER-899551] | 43 nM | > 10000 nM
3 | C[C@H]1C[C@@H](NCc2cn(C)cn2)CN(c2ccc(C#N)c3ncccc23)C1 [ER-899552] | 207 nM | 1970 nM
4 | CC(N[C@@H]1C[C@H](C)CN(c2ccc(C#N)c3ncccc23)C1)c1ccccn1 (some centres unmarked) [ER-899607] | 149 nM | > 10000 nM
